pIC50: −log10 of the molar value. Values belong to the compound of their own block, whether it stands above or below them.
System: K86415-001-R-J1-PDC complex spheroids, viability
Experiment: Anticancer human tumor K86415-001-R-J1-PDC patient-derived lung adenocarcinoma cell line growth inhibition [RAS]
Conditions: for pIC50: curve of first compound; for viability, T/C: stronger effect = lower value
How it was run: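 Tumour cells grown as complex spheroids with HUVEC endothelial cells and mesenchymal stem cells, treated with RAS pathway inhibitor combinations. Each agent spans half-log steps from near clinical Cmax, or 10 microM where Cmax is unknown.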

[1] = second compound 0.000949 µM, first compound 0.00316 µM
[2] = second compound 0.000949 µM, first compound 0.01 µM
[3] = second compound 0.000949 µM, first compound 0.0316 µM
[4] = second compound 0.000949 µM, first compound 0.1 µM
[5] = second compound 0.000949 µM, first compound 0.316 µM
[6] = second compound 0.000949 µM, first compound 1 µM
[7] = second compound 0.003 µM, first compound 0.00316 µM
[8] = second compound 0.003 µM, first compound 0.01 µM
[9] = second compound 0.003 µM, first compound 0.0316 µM
[10] = second compound 0.003 µM, first compound 0.1 µM
[11] = second compound 0.003 µM, first compound 0.316 µM
[12] = second compound 0.003 µM, first compound 1 µM
[13] = second compound 0.00949 µM, first compound 0.00316 µM
[14] = second compound 0.00949 µM, first compound 0.01 µM
[15] = second compound 0.00949 µM, first compound 0.0316 µM
[16] = second compound 0.00949 µM, first compound 0.1 µM
[17] = second compound 0.00949 µM, first compound 0.316 µM
[18] = second compound 0.00949 µM, first compound 1 µM
[19] = second compound 0.03 µM, first compound 0.00316 µM
[20] = second compound 0.03 µM, first compound 0.01 µM
[21] = second compound 0.03 µM, first compound 0.0316 µM
[22] = second compound 0.03 µM, first compound 0.1 µM
[23] = second compound 0.03 µM, first compound 0.316 µM
[24] = second compound 0.03 µM, first compound 1 µM
[25] = second compound 0.0949 µM, first compound 0.00316 µM
[26] = second compound 0.0949 µM, first compound 0.01 µM
[27] = second compound 0.0949 µM, first compound 0.0316 µM
[28] = second compound 0.0949 µM, first compound 0.1 µM
[29] = second compound 0.0949 µM, first compound 0.316 µM
[30] = second compound 0.0949 µM, first compound 1 µM
[31] = second compound 0.3 µM, first compound 0.00316 µM
[32] = second compound 0.3 µM, first compound 0.01 µM
[33] = second compound 0.3 µM, first compound 0.0316 µM
[34] = second compound 0.3 µM, first compound 0.1 µM
[35] = second compound 0.3 µM, first compound 0.316 µM
[36] = second compound 0.3 µM, first compound 1 µM
[37] = second compound 0.000949 µM, first compound 3.16 µM
[38] = second compound 0.000949 µM, first compound 10 µM
[39] = second compound 0.003 µM, first compound 3.16 µM
[40] = second compound 0.003 µM, first compound 10 µM
[41] = second compound 0.00949 µM, first compound 3.16 µM
[42] = second compound 0.00949 µM, first compound 10 µM
[43] = second compound 0.03 µM, first compound 3.16 µM
[44] = second compound 0.03 µM, first compound 10 µM
[45] = second compound 0.0949 µM, first compound 3.16 µM
[46] = second compound 0.0949 µM, first compound 10 µM
[47] = second compound 0.3 µM, first compound 3.16 µM
[48] = second compound 0.3 µM, first compound 10 µM
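Further: spheroids exposed to agents for seven days before readout.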

pIC50 (second compound 0.000949 µM): > 8.50 | pIC50 (second compound 0.003 µM): > 8.50 | pIC50 (second compound 0.00949 µM): > 8.50 | pIC50 (second compound 0.03 µM): > 8.50 | pIC50 (second compound 0.0949 µM): > 8.50 | pIC50 (second compound 0.3 µM): > 8.50
Structure (SMILES): C=CC(=O)Nc1cc(Nc2nccc(-c3cn(C)c4ccccc34)n2)c(OC)cc1N(C)CCN(C)C + CCn1c(-c2cc(N3CCN(C)CC3)cnc2C(C)OC)c2c3cc(ccc31)-c1csc(n1)CC(NC(=O)C1CC1C)C(=O)N1CCCC(N1)C(=O)OCC(C)(C)C2
viability, T/C [1]: 42.7% | viability, T/C [2]: 48.3% | viability, T/C [3]: 35.9% | viability, T/C [4]: 38.2% | viability, T/C [5]: 21.3% | viability, T/C [6]: 12.4% | viability, T/C [7]: 24.9% | viability, T/C [8]: 21.3% | viability, T/C [9]: 14.2% | viability, T/C [10]: 17% | viability, T/C [11]: 8.65% | viability, T/C [12]: 7.93% | viability, T/C [13]: 17.6% | viability, T/C [14]: 9.97% | viability, T/C [15]: 7.46% | viability, T/C [16]: 8.25% | viability, T/C [17]: 4.55% | viability, T/C [18]: 4.52% | viability, T/C [19]: 7.56% | viability, T/C [20]: 5.27% | viability, T/C [21]: 5.75% | viability, T/C [22]: 3.23% | viability, T/C [23]: 3.09% | viability, T/C [24]: 3.11% | viability, T/C [25]: 3.51% | viability, T/C [26]: 3.84% | viability, T/C [27]: 2.21% | viability, T/C [28]: 2.65% | viability, T/C [29]: 3.94% | viability, T/C [30]: 3.24% | viability, T/C [31]: 2.73% | viability, T/C [32]: 2.35% | viability, T/C [33]: 2.65% | viability, T/C [34]: 2.51% | viability, T/C [35]: 2.55% | viability, T/C [36]: 3.25%

pIC50 (second compound 0.000949 µM): 7.37 | pIC50 (second compound 0.003 µM): > 7.50 | pIC50 (second compound 0.00949 µM): > 7.50 | pIC50 (second compound 0.03 µM): > 7.50 | pIC50 (second compound 0.0949 µM): > 7.50 | pIC50 (second compound 0.3 µM): > 7.50
Structure (SMILES): CC(C)NCC(C(=O)N1CCN(c2ncnc3c2C(C)CC3O)CC1)c1ccc(Cl)cc1 (stereo not drawn) + CCn1c(-c2cc(N3CCN(C)CC3)cnc2C(C)OC)c2c3cc(ccc31)-c1csc(n1)CC(NC(=O)C1CC1C)C(=O)N1CCCC(N1)C(=O)OCC(C)(C)C2
viability, T/C [3]: 52.1% | viability, T/C [4]: 48.3% | viability, T/C [5]: 28.8% | viability, T/C [6]: 31.1% | viability, T/C [37]: 29% | viability, T/C [38]: 13.3% | viability, T/C [9]: 25% | viability, T/C [10]: 15.2% | viability, T/C [11]: 13.7% | viability, T/C [12]: 16% | viability, T/C [39]: 10.4% | viability, T/C [40]: 3.32% | viability, T/C [15]: 12.1% | viability, T/C [16]: 15.4% | viability, T/C [17]: 6.91% | viability, T/C [18]: 4.13% | viability, T/C [41]: 1.63% | viability, T/C [42]: 1% | viability, T/C [21]: 5.32% | viability, T/C [22]: 4.39% | viability, T/C [23]: 3.56% | viability, T/C [24]: 1.38% | viability, T/C [43]: 0.66% | viability, T/C [44]: 0.65% | viability, T/C [27]: 2.69% | viability, T/C [28]: 3.08% | viability, T/C [29]: 1.6% | viability, T/C [30]: 0.75% | viability, T/C [45]: 0.62% | viability, T/C [46]: 0.56% | viability, T/C [33]: 2.88% | viability, T/C [34]: 1.88% | viability, T/C [35]: 1.86% | viability, T/C [36]: 0.88% | viability, T/C [47]: 0.75% | viability, T/C [48]: 0.84%

pIC50 (second compound 0.000949 µM): > 7.50 | pIC50 (second compound 0.003 µM): > 7.50 | pIC50 (second compound 0.00949 µM): > 7.50 | pIC50 (second compound 0.03 µM): > 7.50 | pIC50 (second compound 0.0949 µM): > 7.50 | pIC50 (second compound 0.3 µM): > 7.50
Structure (SMILES): CC(Nc1ccc2c(c1)OCCn1cc(N3C(=O)OCC3C(F)F)nc1-2)C(N)=O (stereo not drawn) + CCn1c(-c2cc(N3CCN(C)CC3)cnc2C(C)OC)c2c3cc(ccc31)-c1csc(n1)CC(NC(=O)C1CC1C)C(=O)N1CCCC(N1)C(=O)OCC(C)(C)C2
viability, T/C [3]: 44.1% | viability, T/C [4]: 28.2% | viability, T/C [5]: 22.2% | viability, T/C [6]: 20.6% | viability, T/C [37]: 16.6% | viability, T/C [38]: 6.57% | viability, T/C [9]: 18.8% | viability, T/C [10]: 12.9% | viability, T/C [11]: 12.1% | viability, T/C [12]: 8.44% | viability, T/C [39]: 5.02% | viability, T/C [40]: 1.84% | viability, T/C [15]: 11.8% | viability, T/C [16]: 4.96% | viability, T/C [17]: 3.08% | viability, T/C [18]: 2.36% | viability, T/C [41]: 1.25% | viability, T/C [42]: 0.72% | viability, T/C [21]: 4.01% | viability, T/C [22]: 1.42% | viability, T/C [23]: 1.24% | viability, T/C [24]: 1.2% | viability, T/C [43]: 0.54% | viability, T/C [44]: 0.63% | viability, T/C [27]: 1.94% | viability, T/C [28]: 1.08% | viability, T/C [29]: 0.93% | viability, T/C [30]: 0.62% | viability, T/C [45]: 0.8% | viability, T/C [46]: 0.59% | viability, T/C [33]: 2.35% | viability, T/C [34]: 0.93% | viability, T/C [35]: 0.73% | viability, T/C [36]: 0.47% | viability, T/C [47]: 0.85% | viability, T/C [48]: 0.49%

pIC50 (second compound 0.000949 µM): > 8.50 | pIC50 (second compound 0.003 µM): > 8.50 | pIC50 (second compound 0.00949 µM): > 8.50 | pIC50 (second compound 0.03 µM): > 8.50 | pIC50 (second compound 0.0949 µM): > 8.50 | pIC50 (second compound 0.3 µM): > 8.50
Structure (SMILES): O=C(c1ccc(F)c(F)c1Nc1ccc(I)cc1F)N1CC(O)([C@@H]2CCCCN2)C1 + CCn1c(-c2cc(N3CCN(C)CC3)cnc2C(C)OC)c2c3cc(ccc31)-c1csc(n1)CC(NC(=O)C1CC1C)C(=O)N1CCCC(N1)C(=O)OCC(C)(C)C2
viability, T/C [1]: 44.4% | viability, T/C [2]: 36.8% | viability, T/C [3]: 16.1% | viability, T/C [4]: 14.3% | viability, T/C [5]: 7.06% | viability, T/C [6]: 3.12% | viability, T/C [7]: 20.1% | viability, T/C [8]: 12.8% | viability, T/C [9]: 8.83% | viability, T/C [10]: 4.83% | viability, T/C [11]: 3.13% | viability, T/C [12]: 1.88% | viability, T/C [13]: 12.8% | viability, T/C [14]: 20.7% | viability, T/C [15]: 3.97% | viability, T/C [16]: 3.06% | viability, T/C [17]: 1.18% | viability, T/C [18]: 1.4% | viability, T/C [19]: 3.31% | viability, T/C [20]: 1.65% | viability, T/C [21]: 2.04% | viability, T/C [22]: 1.29% | viability, T/C [23]: 1.25% | viability, T/C [24]: 0.85% | viability, T/C [25]: 2.17% | viability, T/C [26]: 1.59% | viability, T/C [27]: 1.36% | viability, T/C [28]: 0.82% | viability, T/C [29]: 0.8% | viability, T/C [30]: 0.95% | viability, T/C [31]: 2.23% | viability, T/C [32]: 1.56% | viability, T/C [33]: 1.42% | viability, T/C [34]: 0.74% | viability, T/C [35]: 0.89% | viability, T/C [36]: 0.77%

Reference: PubChem BioAssay AID2060893 (Molecular Pharmacology Branch, DTP, NCI, 2025)
